Tests used:
[1] = test system: human colon cancer HCT 116 cells; test: Cell growth inhibition test against colon cancer cells (XTT); format: cell-based; details: read-out: GI50 value (concentration of 50% growth inhibition), 72 hours
Protocol: (§1) As cancer cell lines, human lung cancer A549 cells (ATCC No. CCL-185), human ovarian cancer SK-OV-3 cells (ATCC No. HTB-77), and human colon cancer HCT 116 cells (ATCC No. CCL-247) were used. For the culture of A549 cells, Nutrient Mixture F-12K medium (Invitrogen, catalog No. 21127-022) containing 10% fetal bovine serum (Invitrogen, catalog No. 10099-141), 100 units/mL penicillin (Invitrogen, catalog No. 15140-122), and 100 μg/mL streptomycin (Invitrogen, catalog No. 15140-122) was used. For the culture of SK-OV-3 cells and HCT 116 cells, McCoy's 5A medium (Invitrogen, catalog No. 16600-082) containing 10% fetal bovine serum (Invitrogen, catalog No. 10099-141), 100 units/mL penicillin (Invitrogen, catalog No. 15140-122), and 100 μg/mL streptomycin (Invitrogen, catalog No. 15140-122) was used. The cells were cultured at 37° C. in a 5% carbon dioxide atmosphere.
(§2) A549 cells (1000 cells/well), SK-OV-3 cells (2000 cells/well), or HCT 116 cells (1000 cells/well) were seeded in each well of 96-well plates (Nunc, catalog No. 167008), and cultured overnight. Test compounds diluted stepwise were added, and the cells were further cultured for 72 hours (final volume: 100 μL/well). Fifty μL XTT labeling mixture of Cell Proliferation Kit II (XTT) (Roche Diagnostics, catalog No. 1465015) was added to each well, and the plates were incubated at 37° C. After 1 to 3 hours, absorbance at 490 nm (reference wavelength: 655 nm) was measured with a plate reader (Molecular Device, SpectraMax 340PC^384). Growth ratios of the cells in the wells treated with the test compounds were calculated based on the growth ratio of the cells in the control well treated with solvent (dimethyl sulfoxide (DMSO)) for 72 hours, which was defined as 100%.

[2] = test system: human lung cancer A549 cells; test: Cell growth inhibition test against lung cancer cells (XTT); format: cell-based; details: read-out: GI50 value (concentration of 50% growth inhibition), 72 hours
Protocol: as §1, §2

[3] = test system: human ovarian cancer SK-OV-3 cells; test: Cell growth inhibition test against ovarian cancer cells (XTT); format: cell-based; details: read-out: GI50 value (concentration of 50% growth inhibition), 72 hours
Protocol: as §1, §2

[4] = test system: human pancreatic cancer MIA PaCa-2 cells; test: Cell growth inhibition test against pancreatic cancer cells (XTT); format: cell-based; details: read-out: GI50 value (concentration of 50% growth inhibition)
Protocol: as §2
(§3) As cancer cell lines, human pancreatic cancer MIA PaCa-2 cells (JCRB No. 0070), human cervical cancer HeLa cells (ATCC No. CCL-2), human breast cancer MDA-MB-468 cells (ATCC No. HTB-132), human prostate cancer DU 145 cells (ATCC No. HTB-81), human skin cancer SK-MEL-28 cells (ATCC No. HTB-72), human head and neck cancer KB cells (JCRB No. 9027), human renal cancer 786-0 cells (ATCC No. CRL-1932), and human liver cancer Hep G2 cells (ATCC No. HB-8065) were used. The cells were cultured at 37° C. in a 5% carbon dioxide atmosphere (except for the human breast cancer MDA-MB-468 cells, which were cultured under the condition at 37° C.) by using the mediums mentioned below, respectively.
(§4) In the same manner as that in Test Example 1, the cells were seeded (500 to 4000 cells/well, respectively) in each well of 96-well plates (Nunc, catalog No. 167008), and growth ratios of the cells treated with test compounds were calculated. The measurement of absorbance was performed at 1.5 to 3 hours after the addition of the XTT labeling mixture.

[5] = test system: human cervical cancer HeLa cells; test: Cell growth inhibition test against cervical cancer cells (XTT); format: cell-based; details: read-out: GI50 value (concentration of 50% growth inhibition)
Protocol: as §2, §3, §4

[6] = test system: human breast cancer MDA-MB-468 cells; test: Cell growth inhibition test against breast cancer cells (XTT); format: cell-based; details: read-out: GI50 value (concentration of 50% growth inhibition)
Protocol: as §2, §3, §4

[7] = test system: human prostate cancer DU 145 cells; test: Cell growth inhibition test against prostate cancer cells (XTT); format: cell-based; details: read-out: GI50 value (concentration of 50% growth inhibition)
Protocol: as §2, §3, §4

[8] = test system: human skin cancer SK-MEL-28 cells; test: Cell growth inhibition test against skin cancer cells (XTT); format: cell-based; details: read-out: GI50 value (concentration of 50% growth inhibition)
Protocol: as §2, §3, §4

[9] = test system: human head and neck cancer KB cells; test: Cell growth inhibition test against head and neck cancer cells (XTT); format: cell-based; details: read-out: GI50 value (concentration of 50% growth inhibition)
Protocol: as §2, §3, §4

[10] = test system: human renal cancer 786-0 cells; test: Cell growth inhibition test against renal cancer cells (XTT); format: cell-based; details: read-out: GI50 value (concentration of 50% growth inhibition)
Protocol: as §2, §3, §4

[11] = test system: human liver cancer Hep G2 cells; test: Cell growth inhibition test against liver cancer cells (XTT); format: cell-based; details: HepG2, read-out: GI50 value (concentration of 50% growth inhibition)
Protocol: as §2, §3, §4

[12] = target: T1, recombinant human Eg5 motor domain protein (Homo sapiens, UniProt P52732); test: Eg5 enzyme inhibition test (ATPase activity); format: biochemical; details: for IC50: 30° C., 30 minutes, absorbance at 360 nm, read-out: Inhibition ratios (IC50) on the ATPase activity of Eg5
T1 construct: A plasmid expressing the motor domain of human Eg5 was constructed; made in house; host or cells: Escherichia coli BL21 (DE3)
T1 sequence (P52732 18-359 limits assumed): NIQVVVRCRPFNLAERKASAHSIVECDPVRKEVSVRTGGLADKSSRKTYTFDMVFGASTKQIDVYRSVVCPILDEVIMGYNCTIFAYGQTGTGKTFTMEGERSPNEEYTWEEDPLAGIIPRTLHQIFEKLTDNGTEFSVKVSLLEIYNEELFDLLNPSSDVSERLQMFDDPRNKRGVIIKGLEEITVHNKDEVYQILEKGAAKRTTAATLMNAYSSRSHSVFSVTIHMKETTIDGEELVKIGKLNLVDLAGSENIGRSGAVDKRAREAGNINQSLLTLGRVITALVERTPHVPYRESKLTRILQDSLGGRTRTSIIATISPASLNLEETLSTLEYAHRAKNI
Protocol: A recombinant human Eg5 motor domain protein was prepared by referring to the literature [Biochemistry, Vol. 35, p. […] A plasmid expressing the motor domain of human Eg5 was constructed, and transformed into Escherichia coli BL21 (DE3). The transformant was cultured at 25° C., and when the OD600 reached 0.74, isopropyl-β-D-thiogalactoside was added at a final concentration of 0.5 mmol/L. The transformant was further cultured for 4 hours, and then the culture medium was centrifuged to collect the cells. The cells were suspended in a buffer and ultrasonicated, and then the sonicated solution was centrifuged to recover the supernatant. The supernatant was purified by cation exchange column chromatography to obtain a partially purified sample. Furthermore, the partially purified sample was purified by gel filtration column chromatography to obtain a finally purified sample.
Measurement of the ATPase activity of Eg5 was carried out by referring to the literatures [EMBO Journal, Vol. 13, p. […] Solution A was dispensed into each well of a 96-well plate as 45 μL portions. Solution B was used to serially dilute a test compound. The diluted test compound solutions in a volume of 30 μL were mixed with Solution A added beforehand in each well of the 96-well plate to start the enzymatic reaction. The enzymatic reaction was performed at 30° C. for 30 minutes. […] The relative activity was calculated to calculate IC50 value.

| SMILES | GI50 [1] [µM] | GI50 [2] [µM] | GI50 [3] [µM] | GI50 [4] [µM] | GI50 [5] [µM] | GI50 [6] [µM] | GI50 [7] [µM] | GI50 [8] [µM] | GI50 [9] [µM] | GI50 [10] [µM] | GI50 [11] [µM] | Inhibition of the ATPase activity of Eg5 (in words) [12] | IC50 [12] [µM] | melting point [°C] |
| --- | --- | --- | --- | --- | --- | --- | --- | --- | --- | --- | --- | --- | --- | --- |
| CC(C)(C)C(=O)NC1=NN(C(=O)C(C)(C)C)C(CCCC(=O)NCCO)(c2ccccc2)S1 (single isomer, unassigned) [Compound o, 4-[3-(2,2-Dimethylpropionyl)-5-(2,2-dimethylpropionylamino)-2-phenyl-2,3-dihydro-1,3,4-thiadiazol-2-yl]-N-(2-hydroxyethyl)butanamide] | < 0.1 | < 10 | < 10 | < 10 | < 10 | < 10 | < 10 | < 10 | < 10 | < 10 | < 10 | inhibited the ATPase activity of Eg5 in a concentration-dependent manner | < 0.1 | – |
| CC(C)(C)C(=O)NC1=NN(C(=O)C(C)(C)C)C(CCNS(C)(=O)=O)(c2ccccc2)S1 (single isomer, unassigned; (-)) [Compound a, (−)-N-[4-(2,2-Dimethylpropionyl)-5-(2-methanesulfonylaminoethyl)-5-phenyl-4,5-dihydro-1,3,4-thiadiazol-2-yl]-2,2-dimethylpropanamide] | < 0.1 | < 10 | < 10 | < 10 | < 10 | < 10 | < 10 | < 10 | < 10 | < 10 | < 10 | inhibited the ATPase activity of Eg5 in a concentration-dependent manner | < 0.1 | 204 to 206 |
| CC(C)C(=O)N1N=C(NC(=O)C(C)(C)C)SC1(CCNS(C)(=O)=O)c1ccccc1 (single isomer, unassigned; (-)) [Compound d, (−)-N-[4-Isobutyryl-5-(2-methanesulfonylaminoethyl)-5-phenyl-4,5-dihydro-1,3,4-thiadiazol-2-yl]-2,2-dimethylpropanamide] | < 0.1 | < 10 | < 10 | < 10 | < 10 | < 10 | < 10 | < 10 | < 10 | < 10 | < 10 | inhibited the ATPase activity of Eg5 in a concentration-dependent manner | < 0.1 | – |
| CCC(=O)N1N=C(N2CCCC2=O)SC1(CCNS(C)(=O)=O)c1ccccc1 (single isomer, unassigned; (-)) [Compound e, (−)-N-{2-[5-(2-Oxopyrrolidin-1-yl)-2-phenyl-3-propionyl-2,3-dihydro-1,3,4-thiadiazol-2-yl]ethyl}methanesulfonamide] | < 0.1 | < 10 | < 10 | < 10 | < 10 | < 10 | < 10 | < 10 | < 10 | < 10 | < 10 | inhibited the ATPase activity of Eg5 in a concentration-dependent manner | < 0.1 | 188 to 191 |
| CN(C)CCS(=O)(=O)NCC1(c2ccccc2)SC(NC(=O)C(C)(C)C)=NN1C(=O)C(C)(C)C (single isomer, unassigned; (-)) [Compound m, (−)-N-[5-(2-Dimethylaminoethanesulfonylaminomethyl)-4-(2,2-dimethyl-propionyl)-5-phenyl-4,5-dihydro-1,3,4-thiadiazol-2-yl]-2,2-dimethylpropanamide] | < 0.1 | < 10 | < 10 | < 10 | < 10 | < 10 | < 10 | < 10 | < 10 | < 10 | < 10 | – | – | 101 to 104 |
| CN(C)CCCS(=O)(=O)NCC1(c2ccccc2)SC(NC(=O)C(C)(C)C)=NN1C(=O)C(C)(C)C (single isomer, unassigned; (-)) [Compound n, (−)-N-[5-(3-Dimethylaminopropanesulfonylaminomethyl)-4-(2,2-dimethylpropionyl)-5-phenyl-4,5-dihydro-1,3,4-thiadiazol-2-yl]-2,2-dimethyl-propanamide] | < 0.1 | < 10 | < 10 | < 10 | < 10 | < 10 | < 10 | < 10 | < 10 | < 10 | < 10 | – | – | 92 to 95 |
